Results: patent EP3436445B1, “HISTONE DEMETHYLASE INHIBITORS” (Celgene Quanticel Research, Inc., priority 2016, dated 2017)

Biological target: T1, FBXL11 (Homo sapiens, UniProt Q9Y2K7)
T1 construct: purchased BPS Bioscience 50102
T1 sequence (Q9Y2K7 1-1162): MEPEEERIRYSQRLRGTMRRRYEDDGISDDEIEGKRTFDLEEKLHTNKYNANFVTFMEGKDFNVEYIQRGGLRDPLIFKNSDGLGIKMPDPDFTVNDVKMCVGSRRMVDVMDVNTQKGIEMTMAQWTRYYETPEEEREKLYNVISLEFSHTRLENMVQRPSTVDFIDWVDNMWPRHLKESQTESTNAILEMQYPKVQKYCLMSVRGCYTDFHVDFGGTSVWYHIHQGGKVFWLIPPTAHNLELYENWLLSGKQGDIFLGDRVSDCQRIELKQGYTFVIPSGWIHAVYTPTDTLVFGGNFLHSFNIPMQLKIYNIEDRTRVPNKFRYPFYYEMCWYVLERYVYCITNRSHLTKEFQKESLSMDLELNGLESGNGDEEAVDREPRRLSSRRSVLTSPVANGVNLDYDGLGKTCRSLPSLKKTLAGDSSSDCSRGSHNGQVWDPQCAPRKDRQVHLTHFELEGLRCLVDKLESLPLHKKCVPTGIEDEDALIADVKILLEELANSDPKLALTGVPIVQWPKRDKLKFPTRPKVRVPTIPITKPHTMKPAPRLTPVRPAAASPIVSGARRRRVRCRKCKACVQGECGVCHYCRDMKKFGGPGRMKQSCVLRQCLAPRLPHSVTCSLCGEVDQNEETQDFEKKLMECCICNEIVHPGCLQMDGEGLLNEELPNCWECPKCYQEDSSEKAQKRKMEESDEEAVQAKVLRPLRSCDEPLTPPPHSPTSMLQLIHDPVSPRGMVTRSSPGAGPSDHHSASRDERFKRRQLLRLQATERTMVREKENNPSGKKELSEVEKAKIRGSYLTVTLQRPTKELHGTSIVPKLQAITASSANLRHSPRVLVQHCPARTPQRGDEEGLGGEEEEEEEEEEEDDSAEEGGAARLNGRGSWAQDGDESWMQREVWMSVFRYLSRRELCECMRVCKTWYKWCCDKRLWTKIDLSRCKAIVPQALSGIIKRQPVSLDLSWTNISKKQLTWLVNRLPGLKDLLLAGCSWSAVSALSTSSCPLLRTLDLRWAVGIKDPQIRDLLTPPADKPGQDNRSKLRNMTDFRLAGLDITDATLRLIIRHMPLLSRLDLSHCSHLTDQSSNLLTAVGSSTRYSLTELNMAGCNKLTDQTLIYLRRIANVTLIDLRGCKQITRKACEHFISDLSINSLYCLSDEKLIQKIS
Assay: FBXL11 in vitro enzyme inhibition assay (AlphaScreen)
Type: biochemical
Conditions: Table 3; 0.15 nM FBXL11, H3K36me2-biotin labeled peptide
Text: This assay determines the ability of a test compound to inhibit FBXL11, FBXL10, and PHF8 demethylase activity. Baculovirus expressed FBXL11 (GenBank Accession #NM_012308, AA1-1162) was purchased from BPS Bioscience (Cat#50102). Baculovirus expressed FBXL10 (GenBank Accession #NM_032590, AA 1-650) was purchased from BPS Bioscience (Cat #50120). Baculovirus expressed PHF8 (GenBank Accession NP_055922.1) was purchased from Active Motif (Cat#31435).
The ability of test compounds to inhibit the activity of FBXL11 was determined in 384-well plate format under the following reaction conditions: 0.15 nM FBXL11, 30 nM H3K36me2-biotin labeled peptide (Anaspec cat # 64442), 0.2 µM alpha-ketoglutaric acid in assay buffer of 50 mM HEPES, pH7.3, 0.005% Brij35, 0.5 mM TCEP, 0.2 mg/ml BSA, 50 µM sodium L-ascorbate, 5 µM ammonium iron(II) sulfate. Reaction product is determined quantitatively by AlphaScreen detection after the addition of detection reagents anti-H3K36me1 antibody, AlphaScreen® Streptavidin-coated Donor beads, and AlphaScreen® Protein A Acceptor beads in 50 mM HEPES, pH7.3, 10 mM NaCl, 0.005% Brij35, 5 mM EDTA, 2 mg/ml BSA to final 10 µg/ml beads.
The assay reaction was initiated by the following: 3 µl of the mixture of 90 nM H3K36me2-biotin labeled peptide and 0.6 µM alpha-ketoglutaric acid with 3 µl of 11-point serial diluted inhibitor in 3% DMSO are added to each well of 384 well Proxiplate (Perkin Elmer), followed by the addition of 3 µl of 0.45 nM FBXL11 to initiate the reaction. The reaction mixture is incubated at room temperature for 1 hour, and terminated by the addition of 3 µl of appropriate dilution of anti H3K36me1 antibody in 50 mM HEPES, pH7.3, 10 mM NaCl, 0.005% Brij35, 5 mM EDTA, 2 mg/ml BSA. Plates will then incubated at room temperature for 40 minutes, followed by addition of 3 µl of 50 µg/ml AlphaScreen® Streptavidin-coated Donor beads and AlphaScreen® Protein A Acceptor beads in 50 mM HEPES, pH7.3, 10 mM NaCl, 0.005% Brij35, 5 mM EDTA, 2 mg/ml BSA. Plates will then be read by EnVision Multilabel Reader in AlphaScreen mode after minimum 2 hour incubation at room temperature. The AlphaScreen signal for each well is used to determine inhibition constant (IC50).

Compound | IC50
c1ccc(Cn2cnc(-c3cc4[nH]nnc4cn3)c2)cc1 [Example 44, 1-benzyl-4-{1H-[1,2,3]triazolo[4,5-c]pyridin-6-yl}-1H-imidazole] | ≤ 100 nM
Clc1ccccc1-n1cnc(-c2cc3[nH]nnc3cn2)c1 [Example 50, 1-(2-chlorophenyl)-4-{1H-[1,2,3]triazolo[4,5-c]pyridin-6-yl}-1H-imidazole] | ≤ 100 nM
Clc1cccc(-n2cnc(-c3cc4[nH]nnc4cn3)c2)c1 [Example 51, 1-(3-chlorophenyl)-4-{1H-[1,2,3]triazolo[4,5-c]pyridin-6-yl}-1H-imidazole] | 100 to 1000 nM
Clc1cccc(Cn2cnc(-c3cc4[nH]nnc4cn3)c2)c1 [Example 46, 1-[(3-chlorophenyl)methyl]-4-{1H-[1,2,3]triazolo[4,5-c]pyridin-6-yl}-1H-imidazole] | ≤ 100 nM
Clc1ccc(Cn2cnc(-c3cc4[nH]nnc4cn3)c2)cc1Cl [Example 48, 1-[(3,4-dichlorophenyl)methyl]-4-{1H-[1,2,3]triazolo[4,5-c]pyridin-6-yl}-1H-imidazole] | ≤ 100 nM
Clc1ccccc1Cn1cnc(-c2cc3[nH]nnc3cn2)c1 [Example 45, 1-[(2-chlorophenyl)methyl]-4-{1H-[1,2,3]triazolo[4,5-c]pyridin-6-yl}-1H-imidazole] | ≤ 100 nM
Clc1ccc(-n2cnc(-c3cc4[nH]nnc4cn3)c2)cc1 [Example 49, 1-(4-chlorophenyl)-4-{1H-[1,2,3]triazolo[4,5-c]pyridin-6-yl}-1H-imidazole] | ≤ 100 nM
Clc1ccc(Cn2cnc(-c3cc4[nH]nnc4cn3)c2)cc1 [Example 47, 1-[(4-chlorophenyl)methyl]-4-{1H-[1,2,3]triazolo[4,5-c]pyridin-6-yl}-1H-imidazole] | ≤ 100 nM
